Literature values, collected in patent publication US5585490A, “Certain cycloalkyl and azacycloalkyl pyrrolopyrimidines; a new class of GABA brain receptor ligands” (priority 1993, dated 1996).

System: benzodiazepine binding site
Conditions: Tallman et al., 1978, Nature, 274: 383-85

CN1CCc2cc3c(cc2C1C1OC(=O)c2c1ccc1c2OCO1)OCO3 (single isomer, unassigned; (+)) [(+) bicuculline]
Enhancement of benzodiazepine binding by GABA agonists is blocked: blocked

CN1CCc2cc3c(cc2C1C1OC(=O)c2c1ccc1c2OCO1)OCO3 (single isomer, unassigned; (-)) [(-) bicuculline]
Enhancement of benzodiazepine binding by GABA agonists is blocked: much less active
